These results are taken from ChEMBL document CHEMBL1201862, “PubChem BioAssay data set” (2004).

The source made the active and inactive calls. Bounds are passed on as bounds.

For experiment [1], the target named is T1, Fatty acid synthase (Homo sapiens, UniProt P49327). Nature of the experiment: FAS thioesterase domain inhibitors, dose response, biochemical, endpoint fluorescence intensity, uHTS hits (AID 624327).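 Further: fluorescence from hydrolysis of an O-methyl fluorescein acyl ester substrate by the enzyme.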 The class given is functional.
The target in experiment [2] is T1, Fatty acid synthase. Nature of the experiment: FAS thioesterase domain inhibitors, dose response, biochemical, kinetic fluorescence intensity (AID 624326).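 Further: rate of fluorescence rise from hydrolysis of a fluorogenic O-methyl fluorescein ester substrate.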 It is filed as functional.
The nature of experiment [3]: cells. It is filed as functional.
A short description of experiment [4]: cells. It is filed as functional, cell-based.
Experiment [5] can be described thus: cells. It is filed as functional, cell-based. This is another data set of the same source.
Experiment [6] has as its target Voltage-dependent T-type calcium channel subunit alpha-1H (Homo sapiens, UniProt O95180). It is filed as functional.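 Further: channel activity triggered by adding a high calcium stimulation buffer.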
Experiment [7] is described as follows: THP-1 cell cytotoxicity, dose response, cytotoxicity control for non-replicating M. tuberculosis project (AID 489025). It is filed as functional.
In experiment [8] the target is T2, Protein skinhead-1 (Caenorhabditis elegans, UniProt P34707).
T2 sequence (P34707 whole entry): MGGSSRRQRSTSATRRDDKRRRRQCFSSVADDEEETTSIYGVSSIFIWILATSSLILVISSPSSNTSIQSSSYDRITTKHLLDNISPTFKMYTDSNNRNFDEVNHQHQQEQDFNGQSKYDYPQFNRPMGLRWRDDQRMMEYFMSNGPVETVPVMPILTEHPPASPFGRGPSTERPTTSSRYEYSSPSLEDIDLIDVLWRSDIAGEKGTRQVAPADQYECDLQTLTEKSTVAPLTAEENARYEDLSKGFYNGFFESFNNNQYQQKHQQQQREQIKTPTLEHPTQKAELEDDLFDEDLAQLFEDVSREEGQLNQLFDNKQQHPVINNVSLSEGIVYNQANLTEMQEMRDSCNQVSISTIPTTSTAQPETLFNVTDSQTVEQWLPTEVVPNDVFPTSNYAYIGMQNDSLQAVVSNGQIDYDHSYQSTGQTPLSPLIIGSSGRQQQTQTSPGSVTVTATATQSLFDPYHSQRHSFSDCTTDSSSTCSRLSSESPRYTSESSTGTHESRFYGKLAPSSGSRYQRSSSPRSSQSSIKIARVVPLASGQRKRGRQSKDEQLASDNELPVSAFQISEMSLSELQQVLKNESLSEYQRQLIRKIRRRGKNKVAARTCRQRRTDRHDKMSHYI
The class given is functional.

Experiment [9] addresses T3, Heat shock factor protein 1 (Mus musculus, UniProt P38532).
T3 sequence (P38532 whole entry): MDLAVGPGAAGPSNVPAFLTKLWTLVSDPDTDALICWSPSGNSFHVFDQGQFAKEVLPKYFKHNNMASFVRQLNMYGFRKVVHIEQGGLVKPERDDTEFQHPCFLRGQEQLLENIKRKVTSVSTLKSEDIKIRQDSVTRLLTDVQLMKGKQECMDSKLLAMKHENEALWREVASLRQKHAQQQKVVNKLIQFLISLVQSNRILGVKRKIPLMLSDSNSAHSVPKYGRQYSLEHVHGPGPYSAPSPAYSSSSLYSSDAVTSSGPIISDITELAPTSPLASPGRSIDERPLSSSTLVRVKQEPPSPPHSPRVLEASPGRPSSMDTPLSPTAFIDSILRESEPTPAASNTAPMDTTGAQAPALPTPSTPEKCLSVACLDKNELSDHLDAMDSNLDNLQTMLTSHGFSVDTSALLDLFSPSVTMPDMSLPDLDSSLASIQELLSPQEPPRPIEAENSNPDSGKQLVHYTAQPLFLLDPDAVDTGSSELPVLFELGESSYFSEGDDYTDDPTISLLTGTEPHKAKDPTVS
Nature of the experiment: HSF1 potentiators in luciferase reporter cells, confirmation, cell-based, NIH3T3, luminescence, dose retest (AID 435004).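 Further: stress induced by proteasome inhibitor MG132 added 30 min after compound; luciferase reporter driven by HSF1 response element in NIH3T3 cells; actives raise luminescence as potentiators of the MG132 stress response.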 The class given is functional.

The target in experiment [10] is Cytochrome P450 2C9 (Homo sapiens, UniProt P11712).
Experiment [11] deals with Cytochrome P450 2C19 (Homo sapiens, UniProt P33261). Nature of the experiment: Cytochrome panel assay with activity outcomes. Panel member name: p450-cyp2c19 Compounds with AC50 equal or less than 10 uM are considered active. The class given is functional. As to conditions: read-out: AC50.
Experiment [12] concerns Streptococcus sp. 'group A'. Nature of the experiment: growth inhibition of control SK(-) GAS strain, dose response, counter-screen for streptokinase expression inhibitor project, luminescence, kanamycin, BacTiterGlo, confirmation (AID 1900). The class given is functional, organism-based.
For experiment [13], the target named is T4, Streptokinase A (Streptococcus pyogenes serotype M1, UniProt P10520).
T4 sequence (P10520 whole entry): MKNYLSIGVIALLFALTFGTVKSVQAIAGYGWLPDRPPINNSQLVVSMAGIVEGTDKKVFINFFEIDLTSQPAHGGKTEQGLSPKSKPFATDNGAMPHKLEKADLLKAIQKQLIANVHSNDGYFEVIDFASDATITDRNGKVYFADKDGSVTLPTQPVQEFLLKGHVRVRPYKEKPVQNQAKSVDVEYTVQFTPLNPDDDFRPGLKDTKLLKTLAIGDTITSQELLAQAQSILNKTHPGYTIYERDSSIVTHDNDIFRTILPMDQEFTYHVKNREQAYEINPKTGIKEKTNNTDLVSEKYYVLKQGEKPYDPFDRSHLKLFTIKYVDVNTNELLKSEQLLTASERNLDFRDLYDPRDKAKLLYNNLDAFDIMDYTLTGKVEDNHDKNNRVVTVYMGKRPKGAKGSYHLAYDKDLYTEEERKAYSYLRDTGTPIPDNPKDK
Nature of the experiment: S. pyogenes streptokinase expression inhibitors, potency, dose response, plasminogen activation absorbance, OD405 (AID 1914).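 Further: secreted streptokinase activity via plasminogen activation per viability signal from cell pellet.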 It is filed as functional, Streptococcus pyogenes M1 GAS.

For experiment [14], the system named is Streptococcus. Nature of the experiment: Group A Streptococcus viability loss, dose response, counter-screen for streptokinase expression inhibitor project, luminescence, BacTiterGlo (AID 1915).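 Further: potency for reduction of bacterial viability or growth.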 The class given is functional, organism-based.
Experiment [15] can be described thus: Luminescence Cell-Based Dose Retest to Confirm Inhibitors of Cancer Stem Cells. [Related pubchem assays (depositor defined):AID2717, AID2721]. To be noted: Homo sapiens. The class given is functional.
Experiment [16] can be described thus: inhibitors of HIV Env-driven cell fusion, dose response, cherry-pick (AID 652057). The class given is functional, cell-based.
The nature of experiment [17]: inhibitors of clade B AD8 Env fusion, dose response, cell-based, cherry-pick (AID 652062).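 Further: luciferase signal from cell-cell fusion driven by HIV-1 clade B AD8 Env; potency is for inhibitors of fusion seen as a drop in luminescence.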 It is filed as functional.
Experiment [18] can be described thus: off-target signal loss in HeLa-CEM21 co-culture – HeLa F-luc CTL cells, cherry-picked, counter-screen for HIV-1 Env fusion inhibitor project, dose response (AID 652040).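 Further: potency for signal decrease marking cytotoxic or nonspecific inhibition.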 The class given is functional, cell-based.
Experiment [19] is described as follows: ZM109 Env clade C HIV-1 fusion inhibitors, dose response, HeLa effector, CEM target cells, luciferase, cherry-pick (AID 652058). The class given is functional, cell-based.
Experiment [20] in a line: inhibitors of firefly luciferase expression or activity, dose response, H4 neuroglioma cells, luminescence (AID 1990). The class given is functional, cell-based.
Experiment [21] is described as follows: inhibitors of SNCA 5'UTR-driven reporter translation, confirmation, H4 neuroglioma cells, luminescence (AID 1988). The class given is functional, cell-based.
Experiment [22] is described as follows: Luminescence Cell-Based Dose Response HTS to Identify Inhibitors of 5'UTR Stem-Loop Driven Prion Protein mRNA Translation in H4 Neuroglioblastoma Cells. [Related pubchem assays: 1827 (Project Summary), 1813 (Primary HTS)]. It is filed as functional.

Voltage-dependent T-type calcium channel subunit alpha-1H, sequence (O95180 whole entry): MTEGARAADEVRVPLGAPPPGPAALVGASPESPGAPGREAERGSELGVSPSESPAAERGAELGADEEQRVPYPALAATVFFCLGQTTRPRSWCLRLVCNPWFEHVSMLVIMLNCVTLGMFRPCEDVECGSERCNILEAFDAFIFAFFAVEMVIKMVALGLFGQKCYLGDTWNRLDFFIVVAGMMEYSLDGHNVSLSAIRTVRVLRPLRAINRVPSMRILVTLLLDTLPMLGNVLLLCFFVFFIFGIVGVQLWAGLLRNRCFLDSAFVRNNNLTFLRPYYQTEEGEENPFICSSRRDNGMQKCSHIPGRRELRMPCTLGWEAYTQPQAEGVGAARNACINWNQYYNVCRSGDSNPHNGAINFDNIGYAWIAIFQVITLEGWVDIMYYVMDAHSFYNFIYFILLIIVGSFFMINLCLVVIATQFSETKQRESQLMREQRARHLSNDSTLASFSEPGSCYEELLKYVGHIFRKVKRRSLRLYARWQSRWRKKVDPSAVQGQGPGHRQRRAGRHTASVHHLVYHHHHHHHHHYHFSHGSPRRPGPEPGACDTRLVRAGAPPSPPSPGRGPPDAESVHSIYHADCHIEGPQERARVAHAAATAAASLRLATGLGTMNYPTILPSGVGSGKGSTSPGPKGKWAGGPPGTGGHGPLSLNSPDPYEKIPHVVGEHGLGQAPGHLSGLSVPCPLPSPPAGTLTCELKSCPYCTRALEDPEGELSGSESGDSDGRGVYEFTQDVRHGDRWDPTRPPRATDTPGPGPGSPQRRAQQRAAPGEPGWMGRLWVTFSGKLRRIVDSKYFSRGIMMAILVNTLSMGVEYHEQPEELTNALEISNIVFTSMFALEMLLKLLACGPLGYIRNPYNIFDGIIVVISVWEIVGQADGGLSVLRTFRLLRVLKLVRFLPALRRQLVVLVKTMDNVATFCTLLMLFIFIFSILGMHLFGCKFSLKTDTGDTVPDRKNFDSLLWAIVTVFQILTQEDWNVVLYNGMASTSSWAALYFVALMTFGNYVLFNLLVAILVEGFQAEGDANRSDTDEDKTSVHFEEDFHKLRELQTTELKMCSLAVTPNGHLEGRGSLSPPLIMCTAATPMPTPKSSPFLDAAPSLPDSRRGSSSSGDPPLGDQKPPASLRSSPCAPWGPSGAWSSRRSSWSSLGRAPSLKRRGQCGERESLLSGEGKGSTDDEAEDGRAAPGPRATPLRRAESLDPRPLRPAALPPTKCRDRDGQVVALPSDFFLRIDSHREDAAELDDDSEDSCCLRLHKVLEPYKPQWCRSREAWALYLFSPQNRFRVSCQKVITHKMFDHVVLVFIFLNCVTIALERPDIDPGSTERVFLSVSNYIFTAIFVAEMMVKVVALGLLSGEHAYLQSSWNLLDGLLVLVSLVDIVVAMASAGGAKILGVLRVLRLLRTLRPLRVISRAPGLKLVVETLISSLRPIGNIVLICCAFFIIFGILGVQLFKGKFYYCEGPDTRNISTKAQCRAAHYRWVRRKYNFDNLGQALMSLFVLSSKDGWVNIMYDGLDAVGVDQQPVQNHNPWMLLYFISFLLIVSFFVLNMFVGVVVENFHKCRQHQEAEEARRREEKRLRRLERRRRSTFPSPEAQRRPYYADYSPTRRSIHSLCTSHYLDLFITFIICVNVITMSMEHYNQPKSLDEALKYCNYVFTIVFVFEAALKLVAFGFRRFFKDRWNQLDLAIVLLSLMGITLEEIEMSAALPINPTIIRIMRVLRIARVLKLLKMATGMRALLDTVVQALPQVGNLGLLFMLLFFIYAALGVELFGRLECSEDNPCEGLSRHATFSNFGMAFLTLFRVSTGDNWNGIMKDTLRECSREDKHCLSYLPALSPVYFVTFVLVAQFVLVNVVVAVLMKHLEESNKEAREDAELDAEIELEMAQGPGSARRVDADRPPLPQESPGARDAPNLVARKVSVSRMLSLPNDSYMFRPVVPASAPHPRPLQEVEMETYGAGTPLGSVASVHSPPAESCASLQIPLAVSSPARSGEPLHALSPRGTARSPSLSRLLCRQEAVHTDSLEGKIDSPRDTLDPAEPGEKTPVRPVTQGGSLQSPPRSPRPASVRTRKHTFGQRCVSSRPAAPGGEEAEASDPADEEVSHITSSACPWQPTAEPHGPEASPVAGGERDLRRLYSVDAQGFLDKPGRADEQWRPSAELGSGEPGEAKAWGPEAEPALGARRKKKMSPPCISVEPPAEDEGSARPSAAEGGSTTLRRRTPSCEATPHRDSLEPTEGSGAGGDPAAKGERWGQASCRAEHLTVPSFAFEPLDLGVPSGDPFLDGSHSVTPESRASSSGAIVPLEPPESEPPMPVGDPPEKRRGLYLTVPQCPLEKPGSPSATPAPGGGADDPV
T1 sequence (P49327 whole entry, the tested form may be a part): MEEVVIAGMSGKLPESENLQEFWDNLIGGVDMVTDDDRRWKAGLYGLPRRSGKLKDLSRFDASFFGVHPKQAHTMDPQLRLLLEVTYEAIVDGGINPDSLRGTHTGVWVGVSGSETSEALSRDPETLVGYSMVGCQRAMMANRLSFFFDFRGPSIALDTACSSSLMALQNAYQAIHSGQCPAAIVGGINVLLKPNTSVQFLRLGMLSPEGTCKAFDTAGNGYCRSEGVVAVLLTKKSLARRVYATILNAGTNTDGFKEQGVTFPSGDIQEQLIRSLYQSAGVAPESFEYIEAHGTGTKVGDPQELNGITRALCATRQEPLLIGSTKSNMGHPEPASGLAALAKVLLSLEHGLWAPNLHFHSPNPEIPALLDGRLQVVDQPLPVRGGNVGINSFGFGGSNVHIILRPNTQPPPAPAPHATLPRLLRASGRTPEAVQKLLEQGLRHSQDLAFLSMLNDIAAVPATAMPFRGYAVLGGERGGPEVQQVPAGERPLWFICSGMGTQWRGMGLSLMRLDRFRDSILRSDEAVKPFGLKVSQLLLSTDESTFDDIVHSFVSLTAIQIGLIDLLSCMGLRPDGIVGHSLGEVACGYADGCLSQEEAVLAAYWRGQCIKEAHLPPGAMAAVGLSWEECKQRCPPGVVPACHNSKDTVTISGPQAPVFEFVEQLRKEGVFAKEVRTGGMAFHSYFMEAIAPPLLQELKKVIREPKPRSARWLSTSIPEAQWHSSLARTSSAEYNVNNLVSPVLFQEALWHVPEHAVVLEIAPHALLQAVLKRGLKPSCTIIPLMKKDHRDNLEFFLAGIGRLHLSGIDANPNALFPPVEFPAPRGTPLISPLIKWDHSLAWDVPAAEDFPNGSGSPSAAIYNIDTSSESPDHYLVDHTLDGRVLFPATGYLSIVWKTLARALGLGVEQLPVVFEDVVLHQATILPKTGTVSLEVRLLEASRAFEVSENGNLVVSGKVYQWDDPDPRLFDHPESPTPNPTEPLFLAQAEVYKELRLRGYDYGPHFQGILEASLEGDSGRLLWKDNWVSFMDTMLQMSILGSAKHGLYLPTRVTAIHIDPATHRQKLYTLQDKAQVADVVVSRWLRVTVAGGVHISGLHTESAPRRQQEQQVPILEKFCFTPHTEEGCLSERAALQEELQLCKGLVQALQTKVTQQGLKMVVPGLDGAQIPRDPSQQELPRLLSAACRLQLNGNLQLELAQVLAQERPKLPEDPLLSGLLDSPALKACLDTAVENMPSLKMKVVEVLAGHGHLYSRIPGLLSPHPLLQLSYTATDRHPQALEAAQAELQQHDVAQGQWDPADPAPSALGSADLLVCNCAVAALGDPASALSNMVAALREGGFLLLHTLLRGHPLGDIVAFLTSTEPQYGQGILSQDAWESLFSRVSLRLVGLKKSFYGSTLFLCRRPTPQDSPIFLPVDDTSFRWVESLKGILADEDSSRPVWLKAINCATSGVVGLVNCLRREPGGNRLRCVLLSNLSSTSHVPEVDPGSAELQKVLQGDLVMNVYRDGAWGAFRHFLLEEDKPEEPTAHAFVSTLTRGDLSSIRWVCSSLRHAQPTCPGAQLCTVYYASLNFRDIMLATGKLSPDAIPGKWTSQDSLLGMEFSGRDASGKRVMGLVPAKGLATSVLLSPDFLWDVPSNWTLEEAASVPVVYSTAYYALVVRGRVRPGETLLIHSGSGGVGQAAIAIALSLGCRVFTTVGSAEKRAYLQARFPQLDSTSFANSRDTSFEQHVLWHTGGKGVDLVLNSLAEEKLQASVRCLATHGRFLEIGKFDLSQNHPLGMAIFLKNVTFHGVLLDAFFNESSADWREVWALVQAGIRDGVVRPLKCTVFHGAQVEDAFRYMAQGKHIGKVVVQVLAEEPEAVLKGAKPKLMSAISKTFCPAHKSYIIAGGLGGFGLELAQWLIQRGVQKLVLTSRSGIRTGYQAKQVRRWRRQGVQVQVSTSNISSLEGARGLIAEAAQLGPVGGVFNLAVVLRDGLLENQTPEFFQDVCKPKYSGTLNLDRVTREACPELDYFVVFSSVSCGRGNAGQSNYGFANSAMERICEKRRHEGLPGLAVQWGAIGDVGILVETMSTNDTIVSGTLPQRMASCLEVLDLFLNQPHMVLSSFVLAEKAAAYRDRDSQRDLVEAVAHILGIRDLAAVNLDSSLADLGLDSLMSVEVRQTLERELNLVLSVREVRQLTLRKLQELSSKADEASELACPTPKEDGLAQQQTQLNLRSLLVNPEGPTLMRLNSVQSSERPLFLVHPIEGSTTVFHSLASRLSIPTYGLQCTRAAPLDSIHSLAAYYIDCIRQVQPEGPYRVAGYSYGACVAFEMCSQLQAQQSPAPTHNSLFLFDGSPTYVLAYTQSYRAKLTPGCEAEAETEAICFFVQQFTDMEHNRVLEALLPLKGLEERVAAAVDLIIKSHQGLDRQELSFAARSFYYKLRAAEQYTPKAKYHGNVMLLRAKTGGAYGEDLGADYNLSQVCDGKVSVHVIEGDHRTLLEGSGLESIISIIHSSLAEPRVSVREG

Consider `O=C(COC(=O)CCc1c[nH]c2ccccc12)Nc1cc([N+](=O)[O-])ccc1Cl`, for which the IC50 was 15.2 µM (active) in [1], 10.7 µM (active) in experiment [2] and 4.54 µM (active) in [3].
Take `CCN(CC)S(=O)(=O)c1ccc(N2CCOCC2)c(NC(=O)c2cccc3ccccc23)c1`: the EC50 in [4] and in experiment [5] was > 350 µM (not active) throughout.
As to `Cc1ccc(C)c(N2CCN(C(=O)CC3Sc4ccccc4NC3=O)CC2)c1` (configuration not stated), the EC50 in experiment [6] was 3.76 µM (active).
Same read-out and setting: to `CCC(=O)Nc1ccc(S(=O)(=O)N2CCc3ccccc3C2)cc1` belongs 7.83 µM (active).
As to `CCCCN1CCC(O)(c2ccccc2)C(C(=O)c2ccccc2)C1` (configuration not stated), the IC50 in experiment [3] was 29.6 µM (active). Moreover, in experiment [7], the CC50 was > 40 µM (active).
In the case of `N#Cc1cc(-c2ccccc2)cn(Cc2c(Cl)cccc2Cl)c1=O`, the IC50 in experiment [1] is 7.42 µM (active); in experiment [2], 8.23 µM (active).
Regarding `Cc1cc(C)n(Cc2ccc(C(=O)NCc3ccco3)o2)n1`, in [8], the IC50 was > 100 µM (inactive).
As for `c1ccc(Cn2nnnc2C(c2cccs2)N2CCc3ccccc3C2)cc1` (configuration not stated), the figures for the EC50 in experiment [9] and in experiment [6] were > 260 µM (inactive) and 0.844 µM (active), respectively.
Regarding `Cc1c(Br)c([N+](=O)[O-])nn1CC(=O)Nc1ccc(Cc2ccncc2)cc1`, the values for the IC50 in experiment [1] and in experiment [2] were 9.53 µM (active) and 8.12 µM (active), respectively.
On to `O=C(N/N=C/C(Br)=C\c1ccccc1)c1ccco1`, for which the results for the EC50 in experiment [4] and in experiment [5] were 13.8 µM (active) and > 350 µM (not active), respectively.
For `COCCNC(=O)c1sc2nc(-c3ccccc3)cn2c1C`, the EC50 in experiment [4] and in experiment [5] was > 350 µM (not active) each time. The AC50 was 28.2 µM (inconclusive) in [10] and 20 µM (inconclusive) in experiment [11].
Consider `COc1cccc(C(c2sc3ncnn3c2O)N2CC(C)OC(C)C2)c1` (configuration not stated), for which the IC50 in experiment [8] is > 100 µM (inactive).
`Cc1nc2ccccc2c(=O)n1/N=C/c1ccc2ccccc2c1O`: the EC50 was > 350 µM (not active) in experiment [4]; 44.6 µM (active) in experiment [12]; > 150 µM (not active) in experiment [13]; > 150 µM (not active) in [14]; > 350 µM (not active) in [5].
With `O=C(CNC(=O)C(c1ccccc1)c1ccccc1)N/N=C/c1ccc(O)cc1O`, the EC50 in experiment [4] was > 350 µM (not active); in experiment [5], 17.5 µM (active). Also, the AC50 in experiment [15] was 2.59 µM (active).
On to `COc1ccc(CCC(C)NCc2cc(OC)cc(OC)c2)cc1` (configuration not stated), for which the AC50 in experiment [16] was 6.55 µM (active); in [17], 14.1 µM (active); in experiment [18], 7.92 µM (active); in [19] it was 9.46 µM (active).
Taken in the same sequence, the figures for `CC[C@@]12C(=O)N(c3ccc(C)cc3)C(=O)N1[C@H](c1ccc(OC)cc1)[C@@H]1C(=O)N(C(C)(C)C)C(=O)[C@@H]12` were 2.37 µM (active), 3.09 µM (active), 4.94 µM (active) and 2.86 µM (active).
As to `Cc1ccccc1CSCCNC(=O)CN(c1ccc2c(c1)OCO2)S(C)(=O)=O`, the EC50 in [6] is 5 µM (active).
As for `CCCc1ccc(OCc2ccc(C(=O)N/N=C/c3cccnc3)o2)cc1`, the IC50 in experiment [3] was 47.6 µM (active). Besides, the CC50 in experiment [7] was > 40 µM (active).
Take `CC(C(=O)N1c2ccccc2Sc2ccccc21)n1nnc(-c2cccs2)n1` (configuration not stated): the 50% effective concentration (EC50) in experiment [6] is 6.38 µM (active).
In the case of `COc1ccc(Cn2nnnc2C(c2cc3cc(C)cc(C)c3nc2O)N2CCOCC2)cc1` (configuration not stated), the AC50 in experiment [16] was 3.39 µM (active); in [17] it was 5.51 µM (active); in [18], 4.7 µM (active); in experiment [19] it was 4.35 µM (active).
On to `O=[N+]([O-])c1cccc(NC(=S)N2CCc3ccccc3C2)c1`, for which the IC50 is 16.5 µM (active) in experiment [1] and 10.6 µM (active) in [2].
As for `COc1cccc(N2CCN(CC(=O)Nc3nnc(-c4ccccc4)s3)CC2)c1`, in [6], the EC50 is 6.4 µM (active).
Consider `COc1ccc(NC(=O)c2cccc(NC(=O)c3ccco3)c2)c(OC)c1`, for which the EC50 in experiment [4] and in experiment [5] was > 350 µM (not active) throughout.
As to `Cc1cc(NC(=O)CSc2nc3ccccc3c(=O)n2Cc2ccc(F)cc2)no1`, the IC50 in [8] is 82.4 µM (inactive).
`CC(=O)c1cccc(NS(=O)(=O)c2ccc3c(c2)oc(=O)n3C)c1`: the IC50 in experiment [8] was > 100 µM (inactive).
Consider `Cn1c(-c2ccccc2)cnc1NCc1cccc([N+](=O)[O-])c1`, for which the IC50 in experiment [1] is 6.81 µM (active); in [2] it was 8.79 µM (active).
Take `N#C/C(=C\c1cn(CCOc2ccccc2)c2ccccc12)C(=O)NCC1CCCO1` (configuration not stated): in experiment [6], the EC50 is 5.31 µM (active).
Take `O=C(CN1CCN(c2ccccc2)CC1)Nc1cccc([N+](=O)[O-])c1`: the IC50 in [1] is 9.24 µM (active); in experiment [2] it was 10.7 µM (active).
Turning to `Clc1cccc(OCc2nc(-c3ccncc3)no2)c1`, the IC50 in experiment [8] was 26.6 µM (active).
`O=C(c1ccc(Cl)c([N+](=O)[O-])c1)N1CCN(S(=O)(=O)c2ccc(Cl)cc2)CC1`: the figures for the IC50 in [1] and in [2] were 14.2 µM (active) and 16.2 µM (active), respectively.
With `Cc1cc(C)nc(N/N=C/C2=C(O)CC(c3ccccc3)CC2=O)n1` (configuration not stated), the EC50 was > 350 µM (not active) in experiment [4]; 14.7 µM (active) in experiment [20]; 11.3 µM (active) in experiment [21]; 14.5 µM (active) in [22]; > 350 µM (not active) in experiment [5].
